Where “and” joins values, the source holds several entries; their conditions need not be identical. Equal entries are not always repeated. Where two headings read alike, the source gives them in different places. Each block holds one molecule with its values, some of them ahead of it. *1 amine or outer side, *2 acyl side, *3 side chain or, on linkers, in order; H or OH if unused. Where a SMILES comes first, the peptide text is derived from it. Where no end group is shown, it is not given here. Side-chain parts run from the residue outwards. [ ]: non-standard residue; d: D form. The star is where a group is joined. C20 diacid = O=C(O)CCCCCCCCCCCCCCCCCCC(=O)*; γGlu = O=C(O)[C@H](CCC(=O)[*:2])N[*:1]; εLys = N[C@@H](CCCCN[*:1])C(=O)[*:2]; NMeI = CC[C@H](C)[C@H](NC)C(=O)O; αMeL = CC(C)C[C@](C)(N)C(=O)O; AEEA = NCCOCCOCC(=O)O; Aib = CC(C)(N)C(=O)O
Columns and labels:
[1] = Pharmacokinetics in Sprague Dawley rats, single subcutaneous or intravenous dose (incl. 10, 30, 100 nmol/kg dose response); format: in vivo
human CRHR1 = target: T1, human CRHR1 (Homo sapiens, UniProt P34998); assay: Human CRHR1 cAMP assay (HTRF) in HEK293 cells stably expressing human CRHR1; format: cell-based; conditions: HEK293 cells overexpressing human CRHR1; relative EC50, maximum 66 nM human UCN1; mean ± SE; read-out: hCRHR1 cAMP EC50 (pM, ± SE)
T1 construct: expressed in transfected cells
T1 sequence (P34998 24-415): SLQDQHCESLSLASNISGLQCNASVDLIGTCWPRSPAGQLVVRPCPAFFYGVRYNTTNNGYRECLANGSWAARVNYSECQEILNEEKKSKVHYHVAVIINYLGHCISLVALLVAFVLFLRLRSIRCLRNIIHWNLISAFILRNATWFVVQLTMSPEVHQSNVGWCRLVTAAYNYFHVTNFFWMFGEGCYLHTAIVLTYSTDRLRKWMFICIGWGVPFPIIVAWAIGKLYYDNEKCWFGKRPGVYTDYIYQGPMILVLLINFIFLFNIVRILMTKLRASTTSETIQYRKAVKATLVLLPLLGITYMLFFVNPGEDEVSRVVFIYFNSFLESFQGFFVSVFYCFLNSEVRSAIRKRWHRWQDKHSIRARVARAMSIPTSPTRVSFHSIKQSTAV
In short: (§1)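 HEK293 cells stably expressing human CRHR1 (25,000/well) or CRHR2b (5,000/well) were treated with peptides in MEM with 0.1% casein, 5 mM HEPES pH 7.4 and 0.25 mM IBMX. Incubation was 1 h at 37 °C for CRHR1 and 30 min at room temperature for CRHR2. cAMP was measured by HTRF (665/620 nm) against a per-experiment cAMP standard curve.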

human CRHR2 = target: T2, human CRHR2 (Homo sapiens, UniProt Q13324); assay: Human CRHR2 cAMP assay (HTRF) in HEK293 cells stably expressing human CRHR2; format: cell-based; conditions: HEK293 cells overexpressing human CRHR2; relative EC50, maximum 10 nM human UCN2; mean ± SE; read-out: hCRHR2 cAMP EC50 (pM, ± SE)
T2 construct: expressed in transfected cells
T2 sequence (Q13324 1-438 isoform Q13324-2): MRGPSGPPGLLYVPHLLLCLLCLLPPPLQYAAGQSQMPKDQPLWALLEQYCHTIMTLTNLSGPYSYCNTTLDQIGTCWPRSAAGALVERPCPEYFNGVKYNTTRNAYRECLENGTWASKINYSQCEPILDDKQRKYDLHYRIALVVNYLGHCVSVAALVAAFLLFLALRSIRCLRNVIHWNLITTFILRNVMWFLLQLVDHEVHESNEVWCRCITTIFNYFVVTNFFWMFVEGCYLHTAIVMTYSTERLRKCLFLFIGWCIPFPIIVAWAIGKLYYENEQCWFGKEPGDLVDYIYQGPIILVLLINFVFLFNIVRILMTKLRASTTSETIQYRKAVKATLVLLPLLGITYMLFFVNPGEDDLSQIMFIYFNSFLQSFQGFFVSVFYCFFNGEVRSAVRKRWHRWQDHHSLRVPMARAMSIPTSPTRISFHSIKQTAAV
In short: as §1

[2] = tested on: MHC-II presented peptides on human dendritic cells; assay: MAPPS assay (MHC-Associated Peptide Proteomics); format: cell-based
Experimental: MAPPS profiles the MHC-II presented peptides on human dendritic cells treated with tested molecules. CD14+ cells, isolated from the PBMCs of normal human donors, were cultured and differentiated into immature DCs by incubation with IL-4 and GM-CSF. On day 4, culture media was replaced with fresh media containing tested molecules. On day 5, LPS was added to transform the cells into mature DCs. On day 6, cells were lysed in RIPA buffer with protease inhibitors. Immunoprecipitation of MHC-II complexes were performed using biotinylated anti-MHC-II antibody coupled to streptavidin beads. The bound complex was eluted and filtered. The isolated MHC-II peptides were analyzed by a mass spectrometer. Peptide identifications were generated by an internal proteomics pipeline using search algorithms with no enzyme and a bovine/human database with test sequences appended to the database. A KNIME workflow was used to process the identification files from the samples. Peptides identified from the test articles were aligned against the parent sequence of the test molecule. The output was used to determine the percentage of donors displaying MHC-II peptides from regions of the test molecule. Polypeptides comprising SEQ ID NOs:54, 49, 50, 29, 41, 45, 1, 22, 25 were tested in the MAPPs assay. […] Depending on the donors, up to three major clusters were observed, each slightly shifted from the others, altogether spanning residues 1-33.

[3] = target: rat CRHR2 (endogenous on A7r5 cells) (rat, UniProt P47866 20-411); assay: cell-based or functional assay
[4] = target: T3, human corticotropin-releasing hormone receptor 1 (CRHR1) (human, UniProt P34998 24-415); assay: cell-based or functional assay
T3 sequence (looked up): T1 sequence (P34998 24-415)

[5] = target: T3, human corticotropin-releasing hormone …; assay: cell-based or functional assay; remark: listed apart in the source
[6] = male, Sprague Dawley, rat, plasma, iv, 196 nmol/kg, single intravenous dose 196 nmol/kg, individual animal
[7] = male, Sprague Dawley, rat, plasma, iv, 196 nmol/kg, single intravenous dose 196 nmol/kg, mean
[8] = single intravenous dose 196 nmol/kg, male Sprague Dawley rats, individual animal
[9] = single subcutaneous dose 196 nmol/kg, male Sprague Dawley rats, individual animal

Sequence of rat CRHR2 (endogenous on A7r5 cells) (P47866 20-411): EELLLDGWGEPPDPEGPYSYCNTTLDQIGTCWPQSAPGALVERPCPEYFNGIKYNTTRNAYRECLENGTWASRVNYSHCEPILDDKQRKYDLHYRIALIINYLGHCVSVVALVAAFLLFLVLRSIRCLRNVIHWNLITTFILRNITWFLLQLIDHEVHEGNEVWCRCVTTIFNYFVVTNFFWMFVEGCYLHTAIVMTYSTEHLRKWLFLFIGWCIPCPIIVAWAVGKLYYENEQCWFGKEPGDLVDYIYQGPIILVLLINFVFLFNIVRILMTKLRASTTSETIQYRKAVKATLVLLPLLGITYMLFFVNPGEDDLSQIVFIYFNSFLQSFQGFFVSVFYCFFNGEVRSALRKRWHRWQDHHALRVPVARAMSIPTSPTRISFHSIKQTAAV

Molecule: CC[C@H](C)[C@H](NC(C)=O)C(=O)N[C@H](C(=O)N[C@H](C(=O)N[C@@H](CO)C(=O)N[C@@](C)(CC(C)C)C(=O)N[C@@H](CC(=O)O)C(=O)N[C@@H](C(=O)N1CCC[C@H]1C(=O)N[C@H](C(=O)NC(C)(C)C(=O)N[C@@](C)(CC(C)C)C(=O)N[C@@H](CC(C)C)C(=O)N[C@@H](CCC(N)=O)C(=O)N[C@H](C(=O)N[C@@H](CCCCN)C(=O)N[C@@H](CC(C)C)C(=O)N[C@@H](CCC(=O)O)C(=O)N[C@@H](CCC(N)=O)C(=O)N[C@@H](CCC(=O)O)C(=O)N[C@@H](CCCNC(=N)N)C(=O)N[C@@H](C)C(=O)N[C@@H](CCC(=O)O)C(=O)N[C@@H](CCCCN)C(=O)N[C@@H](C)C(=O)N[C@@H](CCCNC(=N)N)C(=O)N[C@@H](CCC(N)=O)C(=O)N[C@@H](CCC(N)=O)C(=O)N[C@@H](C)C(=O)N[C@@H](CCCCNC(=O)COCCOCCNC(=O)COCCOCCNC(=O)CC[C@H](NC(=O)CCCCCCCCCCCCCCCCCCC(=O)O)C(=O)O)C(=O)N[C@@H](CCC(=O)O)C(=O)N[C@@H](CC(N)=O)C(=O)N[C@H](C(=O)N[C@@H](CCC(=O)O)C(=O)N[C@H](C(=O)N[C@@H](CC(C)C)C(=O)N[C@@H](C)C(=O)N[C@@H](CCC(N)=O)C(=O)N[C@H](C(N)=O)C(C)C)[C@@H](C)CC)[C@@H](C)O)[C@@H](C)CC)[C@@H](C)CC)C(C)C)[C@@H](C)O)C(C)C [SEQ ID NO: 42, Ac-IVTS αMeL D (D-Val) PI Aib αMeL LQIKLEQERAEKARQQAK((2-[2-(2-Amino-ethoxy)-ethoxy]-acetyl)2-γE-CO-(CH2)18-CO2H)ENTEILAQV-NH2] (Ac-IVTS[αMeL]D[dV]PI[Aib][αMeL]LQIKLEQERAEKARQQAK([AEEA-AEEA-γGlu-C20 diacid])ENTEILAQV-NH2)
clearance [1, 6]: 2.4 mL/h/kg | half-life [1, 6]: 36.1 h | clearance [1, 7]: 2.43 mL/h/kg | half-life [1, 7]: 39.3 h | half-life ([1]; male, Sprague Dawley, rat, plasma, sc, 196 nmol/kg, single subcutaneous dose 196 nmol/kg, individual animal): 33.2 h | CL/F ([1]; male, Sprague Dawley, rat, plasma, sc, 196 nmol/kg, single subcutaneous dose 196 nmol/kg, individual animal, read-out: CL/F (converted)): 5.41 mL/h/kg | Tmax ([1]; male, Sprague Dawley, rat, plasma, sc, 196 nmol/kg, single subcutaneous dose 196 nmol/kg, individual animal, read-out: Tmax): 48 h | half-life ([1]; male, Sprague Dawley, rat, plasma, sc, 196 nmol/kg, single subcutaneous dose 196 nmol/kg, mean): 42.2 h | CL/F ([1]; male, Sprague Dawley, rat, plasma, sc, 196 nmol/kg, single subcutaneous dose 196 nmol/kg, mean, read-out: CL/F (converted)): 4.85 mL/h/kg | Tmax ([1]; male, Sprague Dawley, rat, plasma, sc, 196 nmol/kg, single subcutaneous dose 196 nmol/kg, mean, read-out: Tmax): 40 h | AUC0-inf ([1]; rat, plasma, sc, single subcutaneous dose 196 nmol/kg, male Sprague Dawley rats, mean, read-out: AUC0-inf): 44.3 µM·h | Cmax ([1]; rat, plasma, sc, single subcutaneous dose 196 nmol/kg, male Sprague Dawley rats, mean, read-out: Cmax): 473 nM | AUC0-inf ([1]; rat, plasma, single intravenous dose 196 nmol/kg, male Sprague Dawley rats, mean, read-out: AUC0-inf): 80.6 µM·h | C0 ([1]; rat, plasma, single intravenous dose 196 nmol/kg, male Sprague Dawley rats, mean, read-out: C0): 2420 nM | AUC0-inf [1, 8]: 81.5 µM·h and 77.9 µM·h and 82.5 µM·h | C0 [1, 8]: 2760 nM and 2250 nM and 2260 nM | CL [1, 8]: 2.51 mL/h/kg and 2.37 mL/h/kg | T1/2 [1, 8]: 35.8 h and 46.0 h | AUC0-inf [1, 9]: 38.1 µM·h and 43.2 µM·h and 51.5 µM·h | CL/F [1, 9]: 4.80 mL/h/kg and 4.35 mL/h/kg | Cmax [1, 9]: 399 nM and 559 nM and 460 nM | T1/2 [1, 9]: 39.1 h and 54.2 h | Tmax [1, 9]: 24 h | EC50 (human CRHR1): 2.3e+06 pM | EC50 (human CRHR2): 6.6 ± 0.8 pM

B2: polypeptide comprising SEQ ID NO:2 (peptide)
peptide: Ac-GSPSIVTS[αMeL]DVPT[Aib][αMeL]LQKLLEQERAEKARQQAK([γGlu-AEEA-εLys-C20 diacid])EAAEILAQV-NH2
A7r5 cAMP EC50 [3]: 0.544 nM | Y79 cAMP EC50 [4]: 2100 nM | hCRHR1 cAMP EC50 [5]: > 10000 nM

B3: polypeptide comprising SEQ ID NO:29 (peptide)
peptide: Ac-IVTS[αMeL]D[dV]PTG[αMeL]LQIKLEQERAEKARQQAKENTEILAQV-NH2
modifications: not fully specified (residue 29)
A7r5 cAMP EC50 [3]: 0.123 nM | Y79 cAMP EC50 [4]: 1000 nM | hCRHR1 cAMP EC50 [5]: > 10000 nM

Further lines, with some results ahead:

MAPPS Assay >10 donors with diverse MHC ([2]; donors displaying MHC-II peptides / donors tested): 0/20 | MAPPS Assay >10 donors with diverse MHC ([2]; percentage of donors displaying MHC-II peptides): 0% | EC50 (human CRHR1): 3.7e+06 pM | EC50 (human CRHR2): 9 ± 3.6 pM
Molecule: γGlu-GPSIVTS[αMeL]D[dV]PI[Aib][αMeL]LQIKLEQERAEKARQQAK([AEEA-AEEA-γGlu-C20 diacid])ENTEILAQV-NH2 [SEQ ID NO: 45, γE-GPSIVTS αMeL D (D-Val) PI Aib αMeL LQIKLEQERAEKARQQAK((2-[2-(2-Amino-ethoxy)-ethoxy]-acetyl)2-γE-CO-(CH2)18-CO2H)ENTEILAQV-NH2]
peptides displayed on MHC-II complexes ([2]; human dendritic cells from normal donors): no peptides displayed on MHC-II complexes | immunogenicity compared with SEQ ID NO:54 ([2]; in the MAPPs assay and/or the T cell proliferation assay): substantial improvements in immunogenicity over a compound comprising SEQ ID NO:54

A7r5 cAMP EC50 [3]: 0.967 nM | Y79 cAMP EC50 [4]: > 10000 nM | hCRHR1 cAMP EC50 [5]: > 10000 nM
B1: polypeptide comprising SEQ ID NO:50 (peptide)
peptide: [NMeI]VTSLDVPIG[αMeL]LQKLLEQERAEKARQQAKEAAEILAQV-NH2
modifications: not fully specified (residue 29)
